Experimental data published in BindingDB's records for doi:10.1021/jm801416q (Pharmacopeia, 2010).
pIC50: −log10 of the molar value.

Test: Antagonist activity at human CCR1 in THP1 cells assessed as inhibition of MIP-1-alpha-induced chemotaxis after 3 hrs

Compound	pIC50
Cc1cc(C(F)(F)F)cc(C)c1NC(=O)N1CCC[C@@H]1C(=O)N(C)Cc1ccc(Cl)cc1 [(R)-N2-(4-Chlorobenzyl)-N1-[2,6-dimethyl-4-(trifluoromethyl)phenyl]-N2-methylpyrrolidine-1,2-dicarboxamide]	8.22
COc1ccc(NC(=O)N2CCC[C@@H]2C(=O)N(C)Cc2ccc(Cl)cc2)cc1 [(R)-N2-(4-Chlorobenzyl)-N1-(4-methoxyphenyl)-N2-methylpyrrolidine-1,2-dicarboxamide]	6.36
CN(Cc1ccc(Cl)cc1)C(=O)[C@H]1CCCN1C(=O)Nc1ccc(C(F)(F)F)cc1Cl [(R)-N2-(4-Chlorobenzyl)-N1-[2-chloro-4-(trifluoromethyl)phenyl]-N2-methylpyrrolidine-1,2-dicarboxamide]	7.46
Cc1cc(C(F)(F)F)ccc1NC(=O)N1CCC[C@@H]1C(=O)N(C)Cc1ccc(Cl)cc1 [(R)-N2-(4-Chlorobenzyl)-N2-methyl-N1-[2-methyl-4-(trifluoromethyl)phenyl]pyrrolidine-1,2-dicarboxamide]	7.80
